Data reported in ChEMBL document CHEMBL1201862, “PubChem BioAssay data set” (2004).
The source made the active and inactive calls.

What was measured:
[1] = viability loss in Vero cells – cytotoxicity control for Vif-APOBEC3G degradation inhibitor project, dose response (AID 1117358); format: functional; settings: Vero
[2] = growth inhibition of yeast DHODH-expressing 3D7 parasites – SYBR Green, dry powder samples, dose response (AID 1159570); format: functional, cell-based;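 note: parasite growth measured after 72 hours of compound exposure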
[3] = toxicity to human HepG2 hepatoma cells – cell-based, plate reader, dry powder samples, cytotoxicity control, dose response (AID 1159569); format: functional;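 note: inhibitor potency with signal falling toward the positive control level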
[4] = Dd2 parasite growth inhibition in erythrocytes – SYBR Green, dry powder samples, set 9, dose response (AID 1159568); format: functional, cell-based
[5] = P. falciparum Dd2 growth inhibitors, dose response, SYBR Green, cherry-picked samples (AID 1159567); format: functional, cell-based
[6] = Dd2 malaria parasite growth inhibition potency – SYBR Green, dry powder samples, dose response (AID 1159566); format: functional, cell-based;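 note: potency for growth inhibition with lower SYBR green DNA signal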
[7] = toxicity to human hepatoma HepG2 cells – cell-based, cherry-picked samples, cytotoxicity control, dose response (AID 1159577); format: functional
[8] = Plasmodium falciparum Dd2 Sybr green parasite growth Measured in Cell-Based and Microorganism Combination System Using Plate Reader - 2153-01_Inhibitor_Dose_DryPowder_Activity_Set3.; format: functional
[9] = growth inhibition of PfATP4-mutant resistant parasites – NITD609-resistant line, SYBR Green, dry powder, dose response (AID 1159571); format: functional, cell-based;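 note: parasites synchronized at ring stage by sorbitol before testing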
[10] = Luminescence Cell-Based Dose Response HTS to Identify Inhibitors of 5'UTR Stem-Loop Driven Prion Protein mRNA Translation in H4 Neuroglioblastoma Cells. [Related pubchem assays: 1827 (Project Summary), 1813 (Primary HTS)]; format: functional
[11] = biological target: T1, Oxysterols receptor LXR-beta (Homo sapiens, UniProt P55055); format: functional, cell-based;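 note: Cell-based luminescence dose-response assay of agonist activity at LXR, run as a confirmatory counterscreen to a daf-12 agonist screen; HEK293 cells with Gal4-LXR fusion and GAL4-driven luciferase reporter; agonist potency from rising luciferase signal of a Gal4-LXR reporter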
T1 sequence (P55055 whole entry): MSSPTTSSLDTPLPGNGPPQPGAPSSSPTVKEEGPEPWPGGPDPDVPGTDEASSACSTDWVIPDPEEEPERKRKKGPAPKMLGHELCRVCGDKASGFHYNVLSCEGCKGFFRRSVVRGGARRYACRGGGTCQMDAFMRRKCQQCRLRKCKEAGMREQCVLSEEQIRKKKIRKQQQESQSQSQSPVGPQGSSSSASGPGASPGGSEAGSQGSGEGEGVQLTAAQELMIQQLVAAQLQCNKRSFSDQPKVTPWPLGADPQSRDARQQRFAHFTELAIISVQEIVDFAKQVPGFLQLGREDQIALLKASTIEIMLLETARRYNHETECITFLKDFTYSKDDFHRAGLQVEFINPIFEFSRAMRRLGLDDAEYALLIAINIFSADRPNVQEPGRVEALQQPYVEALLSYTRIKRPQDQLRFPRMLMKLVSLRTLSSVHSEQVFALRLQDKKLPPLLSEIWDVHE

[12] = biological target: T2, Microphthalmia-associated transcription factor (Homo sapiens, UniProt O75030); experiment: reducers of TRPM1 reporter luminescence, concentration series – cell-based, SK-MEL-5, cherry-picked, set 3, MITF inhibitor project, dose response (AID 493073); format: functional;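 note: SK-MEL-5 melanoma cells with luciferase driven by the MITF target TRPM1 promoter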
T2 sequence (O75030 whole entry): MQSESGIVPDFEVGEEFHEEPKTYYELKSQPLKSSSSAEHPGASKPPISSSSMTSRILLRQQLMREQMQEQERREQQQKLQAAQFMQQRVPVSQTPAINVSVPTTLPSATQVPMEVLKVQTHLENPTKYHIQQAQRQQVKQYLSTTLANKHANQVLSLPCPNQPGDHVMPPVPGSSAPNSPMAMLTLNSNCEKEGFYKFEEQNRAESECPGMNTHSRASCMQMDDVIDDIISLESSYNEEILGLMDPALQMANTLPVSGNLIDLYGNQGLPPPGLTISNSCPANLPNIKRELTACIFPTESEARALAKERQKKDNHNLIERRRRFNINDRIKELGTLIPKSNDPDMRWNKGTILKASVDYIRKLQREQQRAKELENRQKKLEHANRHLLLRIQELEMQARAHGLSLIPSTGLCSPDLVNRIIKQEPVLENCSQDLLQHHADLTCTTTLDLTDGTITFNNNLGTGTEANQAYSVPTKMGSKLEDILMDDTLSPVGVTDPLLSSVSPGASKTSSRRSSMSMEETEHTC

[13] = biological target: T3, Rac GTPase-activating protein 1 (Homo sapiens, UniProt Q9H0H5); experiment: blockers of MgcRacGAP-driven Rac1 GTP hydrolysis – biochemical, ADP Hunter fluorescence, primary and confirmatory, confirmation (AID 624330); format: functional
T3 sequence (Q9H0H5 whole entry): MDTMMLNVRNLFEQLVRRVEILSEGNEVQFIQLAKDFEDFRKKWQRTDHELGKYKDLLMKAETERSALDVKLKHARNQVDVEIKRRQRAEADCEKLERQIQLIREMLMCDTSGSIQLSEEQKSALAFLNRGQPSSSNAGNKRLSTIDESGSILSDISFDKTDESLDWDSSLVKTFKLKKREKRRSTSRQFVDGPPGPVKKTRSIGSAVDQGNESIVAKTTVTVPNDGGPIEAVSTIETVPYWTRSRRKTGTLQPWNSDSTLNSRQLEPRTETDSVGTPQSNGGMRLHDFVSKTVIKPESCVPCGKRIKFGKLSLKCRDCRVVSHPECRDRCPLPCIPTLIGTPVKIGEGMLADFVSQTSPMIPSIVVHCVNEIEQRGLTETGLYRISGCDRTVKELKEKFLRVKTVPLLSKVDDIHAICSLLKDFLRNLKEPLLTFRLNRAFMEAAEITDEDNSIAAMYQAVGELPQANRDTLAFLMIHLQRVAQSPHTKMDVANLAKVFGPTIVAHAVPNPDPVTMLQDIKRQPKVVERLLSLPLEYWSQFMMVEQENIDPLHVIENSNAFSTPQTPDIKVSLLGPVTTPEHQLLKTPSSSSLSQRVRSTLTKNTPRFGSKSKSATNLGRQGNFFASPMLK

Paired box protein Pax-8 = Paired box protein Pax-8 (Homo sapiens, UniProt Q06710); experiment: PAX8 transcriptional activity inhibition in RMG-I – RMG-I cells, luciferase, cherry-pick, dose response (AID 687027); format: functional, cell-based;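 note: luciferase reporter driven by Pax8 target thyroperoxidase promoter measured by SteadyGlo luminescence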
[14] = A549 cell cytotoxicity, dose response, cytotoxicity control, plate reader, cherry-pick, antagonist series (AID 743412); format: functional, cell-based
[15] = toxicity toward HepG2 liver cells – cell-based, plate reader, cherry-pick, antagonist series, cytotoxicity control, dose response (AID 743416); format: functional
[16] = blockers of bursicon-stimulated LGR2 cAMP reporter – cell-based, HEK293, CRE-luciferase reporter, cherry pick, set 2, dose response (AID 743343); format: functional;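 note: transfected cells were stimulated with diluted bursicon conditioned medium after compound addition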
[17] = blockade of melanocortin 4 receptor signaling – cell-based, plate reader, cherry pick, counter-screen for LGR2 antagonist project, dose response (AID 743444); format: functional;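 note: transfected HEK 293 cells stimulated with alpha-MSH peptide; potency of inhibitors of the alpha-MSH evoked signal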
Prothrombin = Prothrombin (Homo sapiens, UniProt P00734); experiment: Thrombin 1536 HTS Dose Response Confirmation. [Related pubchem assays: 1046 (Thrombin 1536 HTS; hits were confirmed in this assay)]; format: functional
[18] = biological target: T4, Heat shock factor protein 1 (Mus musculus, UniProt P38532); experiment: enhancement of HSF1-driven luciferase signal – cell-based, NIH3T3, luminescence, dose retest, confirmation (AID 435004); format: functional;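 note: stress induced by proteasome inhibitor MG132 added 30 min after compound; luciferase reporter driven by HSF1 response element in NIH3T3 cells; actives raise luminescence as potentiators of the MG132 stress response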
T4 sequence (P38532 whole entry): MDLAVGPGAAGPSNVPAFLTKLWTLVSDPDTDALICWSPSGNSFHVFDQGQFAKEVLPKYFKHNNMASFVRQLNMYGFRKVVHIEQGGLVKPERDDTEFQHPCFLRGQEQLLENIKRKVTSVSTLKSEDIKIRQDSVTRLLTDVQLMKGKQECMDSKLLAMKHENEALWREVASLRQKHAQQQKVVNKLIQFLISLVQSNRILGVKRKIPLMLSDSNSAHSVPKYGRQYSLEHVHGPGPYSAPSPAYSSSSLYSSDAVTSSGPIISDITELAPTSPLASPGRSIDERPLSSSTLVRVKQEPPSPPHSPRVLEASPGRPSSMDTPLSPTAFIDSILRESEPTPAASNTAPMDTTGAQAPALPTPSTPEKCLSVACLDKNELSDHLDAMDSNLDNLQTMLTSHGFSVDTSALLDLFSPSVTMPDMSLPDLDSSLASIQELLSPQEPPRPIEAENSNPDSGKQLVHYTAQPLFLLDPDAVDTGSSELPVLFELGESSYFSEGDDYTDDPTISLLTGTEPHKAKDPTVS

INS1 = experiment: INS-1E survival protection against cytokine death – cell-based, luminescence, retest, dose response (AID 449756); format: functional; settings: Rattus norvegicus, INS1;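 note: cell death triggered by IL-1 beta plus TNF-alpha plus IFN-gamma mixture; protective hits raise ATP signal compared with cytokine alone wells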
[19] = inhibitors acting on PAX2 in cells – cell-based, plate reader, dry powder samples, selectivity assay for PAX8 inhibitor project, dose response (AID 743048); format: functional;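 note: HEK293 cells carrying a WT1 promoter luciferase reporter driven by expressed Pax2; potency is for inhibition of Pax2 driven reporter signal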
[20] = OVCAR-3 cell viability loss – plate reader, dry powder samples, PAX8 inhibitor project, dose response (AID 743044); format: functional, cell-based
[21] = PAX5 cellular inhibition readout – cell-based, plate reader, dry powder samples, selectivity assay for PAX8 inhibitor project, dose response (AID 743047); format: functional;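 note: HEK293 cells carrying a Pax5 driven CD19 promoter luciferase reporter; potency of inhibitors that lower reporter luminescence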
[22] = IGROV1 cell killing – plate reader, dry powder samples, PAX8 inhibitor project, dose response (AID 743043); format: functional, cell-based; settings: IGROV-1
[23] = COV434 cell viability loss – plate reader, dry powder, SA7, cytotoxicity control for PAX8 inhibitor project, dose response (AID 743145); format: functional, cell-based
[24] = PAX8-dependent cell viability loss – plate reader, dry powder, dose response (AID 743049); format: functional, cell-based
[25] = biological target: Luciferin 4-monooxygenase (Photinus pyralis, UniProt P08659); experiment: inhibition of purified Photinus pyralis luciferase – biochemical, luminescence, dose response (AID 1891)
[26] = Luminescence Cell-Based Dose Confirmation HTS to Identify Inhibitors of Platelet Dense Granule Release. [Related pubchem assays: 1663 (Primary HTS), 1678 (Summary of Project)]; format: functional
[27] = Fluorescence Cell-Based Dose Response to Identify Inhibitors of Thrombin Receptor-Activating Peptide SFLLRN-Mediated P-Selectin Induction on Platelets. [Related pubchem assays: 1663 (Primary HTS), 1889 (retest at dose ), 1891 (counterscreen), 1678 (Project Summary)]; format: functional

Sequence of Paired box protein Pax-8 (Q06710 whole entry): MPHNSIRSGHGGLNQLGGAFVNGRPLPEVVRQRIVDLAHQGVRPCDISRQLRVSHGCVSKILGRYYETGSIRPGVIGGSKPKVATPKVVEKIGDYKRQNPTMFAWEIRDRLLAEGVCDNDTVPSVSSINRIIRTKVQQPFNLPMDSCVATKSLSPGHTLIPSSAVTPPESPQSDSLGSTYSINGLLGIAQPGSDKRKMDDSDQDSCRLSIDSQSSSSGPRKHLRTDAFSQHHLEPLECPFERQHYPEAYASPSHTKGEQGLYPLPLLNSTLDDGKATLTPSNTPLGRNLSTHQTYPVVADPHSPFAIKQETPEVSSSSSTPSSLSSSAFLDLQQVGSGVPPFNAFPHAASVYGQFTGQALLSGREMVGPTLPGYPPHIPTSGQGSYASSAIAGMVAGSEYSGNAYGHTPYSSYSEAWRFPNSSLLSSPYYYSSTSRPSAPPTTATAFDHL
Sequence of Luciferin 4-monooxygenase (P08659 whole entry): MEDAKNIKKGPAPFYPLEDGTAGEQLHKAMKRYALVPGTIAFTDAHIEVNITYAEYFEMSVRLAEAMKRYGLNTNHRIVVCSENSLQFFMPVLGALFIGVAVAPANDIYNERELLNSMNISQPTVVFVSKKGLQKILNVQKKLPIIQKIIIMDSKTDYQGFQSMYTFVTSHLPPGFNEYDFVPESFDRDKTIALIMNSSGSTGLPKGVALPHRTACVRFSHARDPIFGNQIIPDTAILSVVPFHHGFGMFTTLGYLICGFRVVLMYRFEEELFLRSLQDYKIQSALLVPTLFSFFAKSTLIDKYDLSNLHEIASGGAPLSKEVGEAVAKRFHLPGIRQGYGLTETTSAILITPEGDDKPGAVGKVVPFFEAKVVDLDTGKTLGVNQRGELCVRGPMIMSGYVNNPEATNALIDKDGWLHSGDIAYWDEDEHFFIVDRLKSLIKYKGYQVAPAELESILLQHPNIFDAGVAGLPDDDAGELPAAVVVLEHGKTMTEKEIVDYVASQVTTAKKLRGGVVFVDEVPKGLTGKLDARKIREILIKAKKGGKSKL

COc1cc(C(=O)NCC(c2ccco2)N2CCCC2)ccc1OCc1c(C)noc1C (centres undefined)
active: CC50 [1] > 40 µM

COc1ccccc1C#Cc1ccc([C@H]2[C@@H](C#N)N(C(=O)C3CCCC3)[C@H]2CO)cc1
active: AC50 [2] 0.715 µM | AC50 [3] 23.8 µM | AC50 [4] 0.493 µM | AC50 [5] 0.873 µM | AC50 [6] 0.474 µM | AC50 [7] 34.1 µM | AC50 [8] 1.16 µM | AC50 [9] 0.808 µM

Cn1c(=N)n(CC(=O)c2ccccc2)c2ccccc21
inconclusive: EC50 [10] 8.25 µM
inactive: EC50 [11] > 67.5 µM | EC50 (cells) > 67.5 µM

O=C(O)c1cccc(N/N=C/c2cccs2)c1
active: AC50 [12] 1.51 µM | IC50 [13] 75.3 µM | AC50 (Paired box protein Pax-8) 6.14 µM | AC50 [16] 1.87 µM | AC50 [17] 2.41 µM
inactive: AC50 [14] > 52 µM | AC50 [15] > 52 µM | EC50 [11] > 67.5 µM | EC50 (cells) > 67.5 µM

C/C(=C\c1ccccc1)C(=O)n1nnc2ccccc21
active: IC50 (Prothrombin) 0.846 µM

O=C(Nc1ccc(OCC(F)(F)C(F)F)c(C(F)(F)F)c1)c1ccccc1O
active: EC50 [18] 67.4 µM | AC50 (INS1) 4.78 µM | AC50 (Paired box protein Pax-8) 7.06 µM | AC50 [19] 3.62 µM | AC50 [20] 14.8 µM | AC50 [21] 6.09 µM | AC50 [22] 48.2 µM | AC50 [23] 56.2 µM | AC50 [24] 17.8 µM

CCOc1cc(/C=N/NC(N)=O)cc(Br)c1OCC(=O)Nc1ccccc1C
> 112 µM (not active): EC50 [25]
active: EC50 [26] 1.55 µM | EC50 [27] < 1 µM
